# Test system: LPS-induced NF-kB/AP-1 activation in THP1-XBlue-MD2-CD14 cells
# Test: In vitro anti-LPS activity, SEAP reporter assay, LPS added simultaneously with treatment
# Type: cell-based, human
# Conditions: 10 ng/mL LPS, free PMB at 150 μg/mL
# Experimental: To investigate if D-TZP can neutralize LPS, a reporter cell line responding to LPS was incubated with LPS and free PMB or D-TZP's (with different amounts of PMB). THP1-XBlue-MD2-CD14, derived from the human monocytic THP-1 cell line, overexpresses MD2 and CD14 to amplify the response to TLR4 agonist LPS. Color change of the Quanti-Blue reagent (NF-kB/AP-1-inducible secreted embryonic alkaline phosphatase (SEAP) reporter protein) reflects NF-kB/AP-1 activation due to LPS. LPS-induced SEAP production was measured at 620 nm. The reporter cells with 10 ng/mL of LPS expressed a high level of SEAP as compared to non-challenged cells. […] A supernatant was obtained from each mixture to separate unbound LPS and added to THP1-XBlue-MD2-CD14 cells.
# In vitro anti-LPS activity. Five microliters of LPS ([…]) was mixed with 15 μL of free PMB, D-TZP, or TZP at different concentrations in a flat-bottom 96-well plate. THP1-XBlue-MD2-CD14 cell suspension (10^5 cells in 180 μL) was then added to the mixtures. After 24 h incubation, cells were centrifugated at 233 rcf for 5 min. Twenty microliters of the cell medium was mixed with the Quanti-Blue reagent. After 2 h incubation, the color was measured at 620 nm by a Spectra Max M3 microplate reader (Molecular Devices, Sunnyvale, CA). […] The medium was analyzed in the same manner as above.
substance,measurement,value
polymyxin B [PMB],LPS-induced SEAP production,reduced the SEAP production

# Reference: patent US11865158B2, “Process and composition matter of nanoparticle formulation for systemic treatment of sepsis” (PURDUE RESEARCH FOUNDATION, priority 2019, dated 2024)
